Experimental data taken from patent US11319299B2, “Substituted carboxamides as inhibitors of WDR5 protein-protein binding” (PROPELLON THERAPEUTICS INC., priority 2016, dated 2022).

What follows are compounds tested against WDR5 (Homo sapiens (Human), UniProt P61964) (assay: Surface Plasmon Resonance (SPR) assay, KD and residence time). Details: surface plasmon resonance (SPR); read-out: WDR5 binding affinity (KD).
Assay type: binding
Work on `C[C@@H]1CN(c2cc(F)c(-c3cc(F)c(C(=O)N[C@@H]4CCOC4)c(F)c3)cc2NC(=O)c2c[nH]c(=O)cc2C(F)(F)F)C[C@H](C)N1C` [Example 762, 6-oxo-N-(3′,5′,6-trifluoro-4′-(((R)-tetrahydrofuran-3-yl)carbamoyl)-4-((3S,5R)-3,4,5-trimethylpiperazin-1-yl)-[1,1′-biphenyl]-3-yl)-4-(trifluoromethyl)-1,6-dihydropyridine-3-carboxamide] yielded a Kd of 0.9 nM.
With `C[C@@H]1CN(c2cc(F)c(-c3cc(F)c(C(=O)N(C)C4COC4)c(F)c3)cc2NC(=O)c2c[nH]c(=O)cc2C(F)(F)F)C[C@H](C)N1C` [Example 763, 6-oxo-N-(3′,5′,6-trifluoro-4′-(methyl(oxetan-3-yl)carbamoyl)-4-((3S,5R)-3,4,5-trimethylpiperazin-1-yl)-[1,1′-biphenyl]-3-yl)-4-(trifluoromethyl)-1,6-dihydropyridine-3-carboxamide] the Kd was 0.7 nM.
With “N-[4-fluoro-5-[2-[(2R)-2-propan-2-ylmorpholin-4-yl]pyrimidin-5-yl]-2-[(3S,5R)-3,4,5-trimethylpiperazin-1-yl]phenyl]-6-oxo-4-(trifluoromethyl)-1H-pyridine-3-carboxamide [Example 548]” the Kd was 0.5 nM.
With “N-[4-fluoro-5-[2-[(2R,6S)-2,6-dimethylmorpholin-4-yl]pyrimidin-4-yl]-2-[(3R)-3,4-dimethylpiperazin-1-yl]phenyl]-6-oxo-4-(trifluoromethyl)-1H-pyridine-3-carboxamide [Example 698]” the Kd was 1.59 nM.
For “N-[5-[1-(2-cyanopyrimidin-4-yl)-3,6-dihydro-2H-pyridin-5-yl]-4-fluoro-2-[(3R)-3,4-dimethylpiperazin-1-yl]phenyl]-4-(difluoromethyl)-6-oxo-1H-pyridine-3-carboxamide [Example 740]”, the Kd was 4.47 nM.
“N-[5-[1-(5-cyano-1,3-thiazol-2-yl)-3,6-dihydro-2H-pyridin-4-yl]-4-fluoro-2-[(3R)-3,4-dimethylpiperazin-1-yl]phenyl]-4-fluoro-2-(trifluoromethyl)benzamide [Example 690]” was tested, and the Kd was 4.17 nM.
“N-[5-[2-[4-(cyclopropylmethyl)piperazin-1-yl]pyrimidin-5-yl]-4-fluoro-2-[(3R)-3,4-dimethylpiperazin-1-yl]phenyl]-4-fluoro-2-(trifluoromethyl)benzamide [Example 560]” showed a Kd of 1.12 nM.

These compounds were tested on MV4-11 cells (assay: Cell proliferation assay (ATPlite)). Details: Homo sapiens, MV4-11, 120 h; MV-411 cells, five days; read-out: In vitro whole cell potency in MV-411 cells, (IC50).
Assay type: cell-based
Method: (iv) Cell Proliferation Assay
MV4-11 cells were seeded into a 96-well plate at 1,000 cells/well in 150 μl medium (Alpha-MEM containing 10% FBS, 100 μg/ml Normocin, and 50 μg/ml Gentamycin, Invitrogen). A HP D300 digital dispenser was used to dose cells with DMSO or test compounds across a 10-point range of concentrations (high dose of 10 μM), and cultures were grown in a humidified 5% CO2 incubator at 37° C. After five days, plates were removed from the incubator and equilibrated to room temperature. An equal volume of ATPlite assay reagent was added to each well, and samples were processed according to manufacturer's instructions (Perkin Elmer). Luminescent signal was measured using an Envision plate reader equipped with a US-Luminescence detector.
`CC1CN(c2cc(F)c(-c3ccc(N4CCOCC4)c(F)c3)cc2NC(=O)c2c[nH]c(=O)cc2C(F)(F)F)CCN1C` (stereo in doubt) [Example 201, N-[4-fluoro-5-(3-fluoro-4-morpholin-4-ylphenyl)-2-[(3R)-3,4-dimethylpiperazin-1-yl]phenyl]-6-oxo-4-(trifluoromethyl)-1H-pyridine-3-carboxamide] gave an IC50 of 113 nM.
Work on `CC1CN(c2cc(F)c(-c3cnc(N4CCOCC4)nc3)cc2NC(=O)c2cn(C)c(=O)cc2C(F)F)CCN1C` (stereo in doubt) [Example 216, 4-(difluoromethyl)-N-[4-fluoro-5-(2-morpholin-4-ylpyrimidin-5-yl)-2-[(3R)-3,4-dimethylpiperazin-1-yl]phenyl]-1-methyl-6-oxopyridine-3-carboxamide] yielded an IC50 of 388 nM.
For `CN1CCN(c2cc(F)c(-c3cccc(CN4CCOCC4)c3)cc2NC(=O)c2c[nH]c(=O)cc2C(F)(F)F)CC1` [Example 2, N-[4-fluoro-2-(4-methylpiperazin-1-yl)-5-[3-(morpholin-4-ylmethyl)phenyl]phenyl]-6-oxo-4-(trifluoromethyl)-1H-pyridine-3-carboxamide], the IC50 was 2250 nM.
In the case of `CN1CCN(c2cc(F)c(-c3ccc(N4CCOCC4)nc3)cc2NC(=O)c2c[nH]c(=O)cc2C(F)(F)F)CC1` [Example 4, N-(4-fluoro-2-(4-methylpiperazin-1-yl)-5-(6-morpholinopyridin-3-yl)phenyl)-6-oxo-4-(trifluoromethyl)-1,6-dihydropyridine-3-carboxamide], the IC50 is reported as 574 nM.
`CN1CCN(c2cc(F)c(-c3ccc4c(c3)OCO4)cc2NC(=O)c2c[nH]c(=O)cc2C(F)(F)F)CC1` [Example 5, N-(5-(benzo[d][1,3]dioxol-5-yl)-4-fluoro-2-(4-methylpiperazin-1-yl)phenyl)-6-oxo-4-(trifluoromethyl)-1,6-dihydropyridine-3-carboxamide] showed an IC50 of 881 nM.
Work on `CN1CCN(c2cc(F)c(-c3cnc(N4CCCC4)nc3)cc2NC(=O)c2c[nH]c(=O)cc2C(F)(F)F)CC1` [Example 9, N-(4-fluoro-2-(4-methylpiperazin-1-yl)-5-(2-(pyrrolidin-1-yl)pyrimidin-5-yl)phenyl)-6-oxo-4-(trifluoromethyl)-1,6-dihydropyridine-3-carboxamide] yielded an IC50 of 507 nM.
`CN1CCN(c2cc(F)c(-c3cnc(NC4CC4)nc3)cc2NC(=O)c2c[nH]c(=O)cc2C(F)(F)F)CC1` [Example 10, N-(5-(2-(cyclopropylamino)pyrimidin-5-yl)-4-fluoro-2-(4-methylpiperazin-1-yl)phenyl)-6-oxo-4-(trifluoromethyl)-1,6-dihydropyridine-3-carboxamide] showed an IC50 of over 10000 nM.
`CN1CCN(c2cc(F)c(-c3cnc(NC4CCCCC4)nc3)cc2NC(=O)c2c[nH]c(=O)cc2C(F)(F)F)CC1` [Example 11, N-(5-(2-(cyclohexylamino)pyrimidin-5-yl)-4-fluoro-2-(4-methylpiperazin-1-yl)phenyl)-6-oxo-4-(trifluoromethyl)-1,6-dihydropyridine-3-carboxamide] gave an IC50 of 1270 nM.
`CCOc1ncc(-c2cc(NC(=O)c3c[nH]c(=O)cc3C(F)(F)F)c(N3CCN(C)CC3)cc2F)cn1` [Example 12, N-(5-(2-ethoxypyrimidin-5-yl)-4-fluoro-2-(4-methylpiperazin-1-yl)phenyl)-6-oxo-4-(trifluoromethyl)-1,6-dihydropyridine-3-carboxamide] showed an IC50 of 929 nM.
With `Cc1ncc(-c2cc(NC(=O)c3c[nH]c(=O)cc3C(F)(F)F)c(N3CCN(C)CC3)cc2F)cn1` [Example 13, N-(4-fluoro-2-(4-methylpiperazin-1-yl)-5-(2-methylpyrimidin-5-yl)phenyl)-6-oxo-4-(trifluoromethyl)-1,6-dihydropyridine-3-carboxamide] the IC50 was over 10000 nM.
Work on `CN1CCN(c2cc(F)c(-c3ccc(NC4CCCCC4)nc3)cc2NC(=O)c2c[nH]c(=O)cc2C(F)(F)F)CC1` [Example 14, N-(5-(6-(cyclohexylamino)pyridin-3-yl)-4-fluoro-2-(4-methylpiperazin-1-yl)phenyl)-6-oxo-4-(trifluoromethyl)-1,6-dihydropyridine-3-carboxamide] yielded an IC50 of 1520 nM.
`CN1CCN(c2cc(F)c(-c3cnc(O)nc3)cc2NC(=O)c2c[nH]c(=O)cc2C(F)(F)F)CC1` [Example 15, N-(4-fluoro-5-(2-hydroxypyrimidin-5-yl)-2-(4-methylpiperazin-1-yl)phenyl)-6-oxo-4-(trifluoromethyl)-1,6-dihydropyridine-3-carboxamide] was tested, and the IC50 was over 10000 nM.
Work on `CN1CCN(c2cc(F)c(-c3cnc(C#N)nc3)cc2NC(=O)c2c[nH]c(=O)cc2C(F)(F)F)CC1` [Example 16, N-(5-(2-cyanopyrimidin-5-yl)-4-fluoro-2-(4-methylpiperazin-1-yl)phenyl)-6-oxo-4-(trifluoromethyl)-1,6-dihydropyridine-3-carboxamide] yielded an IC50 of 844 nM.
`CN1CCN(c2cc(F)c(-c3cnc(N4CCOCC4)nc3)cc2NC(=O)c2c[nH]c(=O)cc2C(F)F)CC1` [Example 20, 4-(difluoromethyl)-N-(4-fluoro-2-(4-methylpiperazin-1-yl)-5-(2-morpholinopyrimidin-5-yl)phenyl)-6-oxo-1,6-dihydropyridine-3-carboxamide] was tested, and the IC50 was 604 nM.
Work on `CN(C)C1CCN(c2cc(F)c(-c3cnc(N4CCOCC4)nc3)cc2NC(=O)c2c[nH]c(=O)cc2C(F)(F)F)C1` (stereo not drawn) [Example 21, N-[2-[3-(dimethylamino)pyrrolidin-1-yl]-4-fluoro-5-(2-morpholin-4-ylpyrimidin-5-yl)phenyl]-6-oxo-4-(trifluoromethyl)-1H-pyridine-3-carboxamide] yielded an IC50 of 271 nM.
`CN1CCN(c2cc(F)c(C3=CCOCC3)cc2NC(=O)c2c[nH]c(=O)cc2C(F)(F)F)CC1` [Example 22, N-[5-(3,6-dihydro-2H-pyran-4-yl)-4-fluoro-2-(4-methylpiperazin-1-yl)phenyl]-6-oxo-4-(trifluoromethyl)-1H-pyridine-3-carboxamide] was tested, and the IC50 was 5270 nM.
For `CN1CCN(c2cc(F)c(C3=CCNCC3)cc2NC(=O)c2c[nH]c(=O)cc2C(F)(F)F)CC1` [Example 23, N-[4-fluoro-2-(4-methylpiperazin-1-yl)-5-(1,2,3,6-tetrahydropyridin-4-yl)phenyl]-6-oxo-4-(trifluoromethyl)-1H-pyridine-3-carboxamide], the IC50 was over 10000 nM.
For `CN1CCN(c2cc(F)ccc2NC(=O)c2c[nH]c(=O)cc2C(F)(F)F)CC1` [Example 24, N-[4-fluoro-2-(4-methylpiperazin-1-yl)phenyl]-6-oxo-4-(trifluoromethyl)-1H-pyridine-3-carboxamide], the IC50 was over 10000 nM.
`Cc1cc(C(=O)Nc2cc(-c3cnc(N4CCOCC4)nc3)c(F)cc2N2C[C@@H](C)N(C)[C@@H](C)C2)ccc1F` [Example 25, 4-fluoro-N-[4-fluoro-5-(2-morpholin-4-ylpyrimidin-5-yl)-2-[(3R,5S)-3,4,5-trimethylpiperazin-1-yl]phenyl]-3-methylbenzamide] showed an IC50 of over 10000 nM.
In the case of `C[C@@H]1CN(c2cc(F)ccc2NC(=O)c2c[nH]c(=O)cc2C(F)(F)F)C[C@H](C)N1C` [Example 26, N-[4-fluoro-2-[(3R,5S)-3,4,5-trimethylpiperazin-1-yl]phenyl]-6-oxo-4-(trifluoromethyl)-1H-pyridine-3-carboxamide], the IC50 is reported as over 10000 nM.
